Drawing on patent US9879303B2, “Chromogenic glucuronidase substrates and uses” (Glycosynth Limited, priority 2013, dated 2018), this text covers colour for two compounds.

This assay relates to E. faecium NCTC 7171. The experiment in a line: screen of strains in broth medium containing FAC. Format: cell-based. Details: key: Red, Green, Black or Purple mean strong colour; Red, Green, Black or Purple mean strong colour; Red, Green, Black or Purple mean strong colour; Red, Green, Black or Purple mean strong colour; +/− means less colour than strong; Tr means a trace of colour, less than +/−; — means no colour. To be noted: 37° C. 18 hours.

Each structure is given as a SMILES string. Structures can show the parent of a compound that is named as a salt.

With `O=C(O)C1OC(Oc2ccccc2O)C(O)C(O)C1O` [Compound 1, Catechol β-D-Glucuronide CHA Salt], the colour entry is given as “—”. For the compound `O=C(O)C1OC(Oc2cc3ccccc3cc2O)C(O)C(O)C1O` [Compound 2b, DHN-β-D-Glucuronide CHA Salt], the colour entry was “—”.
